Converted amounts (≈) assume the structure as drawn. Read-outs that look alike come from different tables or passages of the source. Starred links: 1 amine or outer side, 2 acyl side, 3 side chain; linkers in the order of their positions; H or OH if unused. Positions of bridges follow the written chain, without caps; N, C: chain ends. Non-standard residues stand in square brackets, D forms with d. Residues, ends and D or L forms follow the SMILES beside them. X5 = CC(C)CCCCCCC[C@H](CC(=O)[*:1])O[*:2]; X2 = CCCCCCC[C@H](CC(=O)[*:1])O[*:2]; Val(3-OH) = CC(C)(O)[C@H](N)C(=O)O; X1 = C/C=C(/N[*:1])C(=O)[*:2]; Dab = NCC[C@H](N)C(=O)O; Dap = NC[C@H](N)C(=O)O
Assays:
[1] = system: P. aeruginosa; experiment: MIC, extended panel, broth micro-dilution in MHII (EUCAST/CLSI); type: cell-based; details: Pseudomonas aeruginosa
Protocol: (§1) Plates were, subsequently, incubated at 37 °C in the dark, and viable colonies counted after 16 to 24 h.
(§2) To estimate MIC values (concentration range between 0.05 and 50 µg/mL), solutions of the tested compounds (100, 10 and 1 and if needed 0.1 µg/mL in MeOH) were dispensed into wells of microtiter plate(s) and the solvent was evaporated in a fume-hood. Subsequently, suspensions of pathogen cells in the appropriate medium were dispensed to the wells of microtiter plates and the growth of pathogens were observed after 16 to 20 h of incubation at 37 °C in the dark. Positive controls were the respective pathogen cells suspended in untreated sterile media without addition of compounds(s) and negative controls were the media only. MIC values were defined as the lowest concentration of each compound with no visible growth of pathogen. All MIC tests were performed in triplicate and […]
(§3) MIC determination for compound 2 against an extended panel of bacterial strains.
(§4) Compound 2 was evaluated against a panel of Gram-negative bacteria (Hughes strain collection), including: A. baumannii ATCC 19606, wild-type; BM4454, multidrug-resistant clinical isolate; BM4652, efflux-defective derivative of BM4454; CH9622, colistin-resistant clinical isolate; E. coli ATCC 25922, wild-type; CH3130, efflux-defective ΔtolC mutant isogenic to ATCC 25922; D22, a drug-hypersensitive lpxC mutant of E. coli; CH3491, multidrug-resistant clinical isolate; CH9623 and CH9624, colistin-resistant clinical isolates carrying mcr-1; K. pneumoniae ATCC 13833, wild-type; […]
(§5) clinical isolate; CH9625 and CH9626, colistin-resistant clinical isolates; P. aeruginosa PAO1, wild-type; PAO750, efflux-defective mutant isogenic to PAO1. The in vitro antimicrobial activity of each compound was determined by measuring the MIC value using the broth micro-dilution technique in cation-adjusted Mueller-Hinton II broth (Becton-Dickinson, 212322) according to EUCAST and CLSI guidelines. Each compound prepared in MHII medium was dispensed into a 96-well round-bottomed microtiter plate to give final assay concentrations from 64 µg/mL down to 0.25 µg/mL (two-fold dilution series in 10 wells, plus two control wells: medium control with no bacteria or compound, and growth control with bacteria added but no compound). Bacteria were prepared from fresh colonies grown on non-selective MHII agar, then suspended in saline to 0.5 McFarland (≅ 1.5 × […]
(§6) 10^8 CFU/mL) with turbidity assessed using a Sensititre Nephelometer (Trek Diagnostics Systems Ltd, UK). 50 µL of this bacterial suspension was transferred to 10 mL of MHII broth to give a final bacterial concentration ≅ 5 × 10^5 CFU/mL (acceptable range 3 – 7 × 10^5 CFU/mL). 50 µL of bacterial suspension was pipetted into each well (except the medium control well, where 50 µL MHII was pipetted). Final volume in each well was 100 µL. Plates were covered and incubated without shaking for 18-20 h at 35 °C ± 2 °C. MIC was read visually, as complete inhibition of growth by the unaided eye, using the medium-only wells as the control. Each compound was assayed at least in duplicate.
(§7) Additionally, the MIC for compound 2 against clinical carbapenem-resistant strains of A. baumannii […]
(§8) determined at the Public Health Agency of Sweden (according to EUCAST recommendations).
(§9) In vitro Cytotoxicity Determination. In vitro cytotoxicity was determined by a fluorometric microculture cytotoxicity assay,7 based on hydrolysis of fluorescein diacetate to fluorescein by cells with intact plasma membranes. In short, HepG2 cells (hepatocellular carcinoma cells, ATCC), in Eagle's Minimum Essential Medium (ATCC) supplemented with 10 % fetal bovine serum, penicillin/streptomycin (100 U/100 µg/mL) and 2 mM L-glutamine, were seeded in 384-well assay plates at a density of 1000 cells/well. The cells were incubated over night at 37°C and compounds in 10 mM DMSO were added, to obtain final concentrations 64 µM – 0.25 µM in two-fold dilutions.
(§10) After incubation for 72 h at 37°C, the cells were pelleted and washed. Fluorescein diacetate was […]

[2] = system: A. baumannii; experiment: as above; type: cell-based; details: Acinetobacter baumannii
Protocol: as §1, §2, §3, §4, §5, §6, §7, §8, §9, §10

[3] = system: K. pneumoniae; experiment: as above; type: cell-based; details: Klebsiella pneumoniae
Protocol: as §1, §2, §3, §4, §5, §6, §7, §8, §9, §10

[4] = system: E. coli; experiment: as above; type: cell-based; details: Escherichia coli
Protocol: as §1, §2, §3, §4, §5, §6, §7, §8, §9, §10

[5] = Bacterial membrane permeabilization assay (carboxyfluorescein leakage from liposomes); type: biochemical; details: large unilamellar liposomes from E. coli phospholipid extract, 45 min, 37 °C

Row | SMILES | MIC ([1]; PAO1, read-out: MIC P. aeruginosa PAO750) | MIC ([1]; PAO1, WT, read-out: MIC P. aeruginosa PAO1) | MIC ([2]; ATCC19606, WT, read-out: MIC A. baumannii ATCC19606) | MIC ([2]; Col (colistin-resistant), read-out: MIC A. baumannii EN0287) | MIC ([2]; MDR clinical, read-out: MIC A. baumannii BM4454) | MIC ([2]; read-out: MIC A. baumannii BM4652, efflux-defective derivative of BM4454) | MIC ([2]; read-out: MIC colistin-resistant strains of A. baumannii, strains not named) | MIC ([3]; ATCC13833, WT, read-out: MIC K. pneumoniae ATCC13833) | MIC ([3]; Col, read-out: MIC K. pneumoniae CH9625) | MIC ([3]; Col, read-out: MIC K. pneumoniae CH9626) | MIC ([3]; ESC, CARBA, CIP, GEN, AMK, SXT, TET, clinical multidrug-resistant, read-out: MIC K. pneumoniae CH3498) | MIC ([3]; WT, read-out: MIC K. pneumoniae 1161486) | MIC ([3]; read-out: MIC K. pneumoniae 1161486a, ΔtolC mutant isogenic to 1161486) | MIC ([3]; read-out: MIC colistin-resistant strains of K. pneumoniae, strains not named) | MIC ([4]; ATCC25922, WT, read-out: MIC E. coli ATCC25922) | MIC ([4]; ATCC25922, read-out: MIC E. coli CH3130, ΔtolC mutant isogenic to ATCC25922) | MIC ([4]; ESC, CIP, GEN, SXT, read-out: MIC E. coli CH3491) | MIC ([4]; read-out: MIC E. coli D22, lpxC mutant, hypersensitive) | EC50 [5]
1 | C/C=C1/NC(=O)[C@H](CCN)NC(=O)[C@H](CC(C)C)NC(=O)[C@H](CN)NC(=O)C[C@@H](CCCCCCC)OC(=O)[C@H](CC(=O)O)NC(=O)[C@H](C(C)(C)O)NC(=O)[C@@H](Cc2ccccc2)NC(=O)[C@H](CN)NC(=O)[C@H]([C@@H](C)O)NC1=O [Compound 2, isopedopeptin B] ([Dap]L[Dab][X1]T[Dap][dF][Val(3-OH)]D; linker N-C via X2) | 32 µg/mL (≈ 28.6 µM) | 32 µg/mL (≈ 28.6 µM) | 8 µg/mL (≈ 7.16 µM) | 8 µg/mL (≈ 7.16 µM) | 8 µg/mL (≈ 7.16 µM) | 8 µg/mL (≈ 7.16 µM) | ≥ 8 µg/mL | 4 µg/mL (≈ 3.58 µM) | 4 µg/mL (≈ 3.58 µM) | 4 µg/mL (≈ 3.58 µM) | 8 µg/mL (≈ 7.16 µM) | 8 µg/mL (≈ 7.16 µM) | 8 µg/mL (≈ 7.16 µM) | ≥ 4 µg/mL | 8 µg/mL (≈ 7.16 µM) | 8 µg/mL (≈ 7.16 µM) | 8 µg/mL (≈ 7.16 µM) | 4 µg/mL (≈ 3.58 µM) | 
2 | C/C=C1/NC(=O)[C@H](CCN)NC(=O)[C@H](CC(C)C)NC(=O)[C@H](CN)NC(=O)C[C@@H](CCCCCCCC(C)C)OC(=O)[C@H](CC(=O)O)NC(=O)[C@H](C(C)(C)O)NC(=O)[C@@H](Cc2ccccc2)NC(=O)[C@H](CN)NC(=O)[C@H]([C@@H](C)O)NC1=O [Compound 6, Isopedopeptin F] ([Dap]L[Dab][X1]T[Dap][dF][Val(3-OH)]D; linker N-C via X5) |  |  |  |  |  |  |  |  |  |  |  |  |  |  |  |  |  |  | 2000 nM

Source: publication PMC7684578, “Isopedopeptins A–H: Cationic Cyclic Lipodepsipeptides from Pedobacter cryoconitis UP508 Targeting WHO Top-Priority Carbapenem-Resistant Bacteria” (ACS Chemical Biology, 2020)
